The residual activity is the signal under treatment as a percentage of the control signal.

Drawing on ChEMBL document CHEMBL3039007, “Structure-based identification of OATP1B1/3 inhibitors” (Mol Pharmacol, 2013), this text covers residual activity for 42 compounds.

Structures are written as SMILES. Residues, ends and D or L forms follow the SMILES beside them.

Data set [1] deals with T1, Solute carrier organic anion transporter family member 1B1 (Homo sapiens, UniProt Q9Y6L6).
T1 sequence (Q9Y6L6 whole entry): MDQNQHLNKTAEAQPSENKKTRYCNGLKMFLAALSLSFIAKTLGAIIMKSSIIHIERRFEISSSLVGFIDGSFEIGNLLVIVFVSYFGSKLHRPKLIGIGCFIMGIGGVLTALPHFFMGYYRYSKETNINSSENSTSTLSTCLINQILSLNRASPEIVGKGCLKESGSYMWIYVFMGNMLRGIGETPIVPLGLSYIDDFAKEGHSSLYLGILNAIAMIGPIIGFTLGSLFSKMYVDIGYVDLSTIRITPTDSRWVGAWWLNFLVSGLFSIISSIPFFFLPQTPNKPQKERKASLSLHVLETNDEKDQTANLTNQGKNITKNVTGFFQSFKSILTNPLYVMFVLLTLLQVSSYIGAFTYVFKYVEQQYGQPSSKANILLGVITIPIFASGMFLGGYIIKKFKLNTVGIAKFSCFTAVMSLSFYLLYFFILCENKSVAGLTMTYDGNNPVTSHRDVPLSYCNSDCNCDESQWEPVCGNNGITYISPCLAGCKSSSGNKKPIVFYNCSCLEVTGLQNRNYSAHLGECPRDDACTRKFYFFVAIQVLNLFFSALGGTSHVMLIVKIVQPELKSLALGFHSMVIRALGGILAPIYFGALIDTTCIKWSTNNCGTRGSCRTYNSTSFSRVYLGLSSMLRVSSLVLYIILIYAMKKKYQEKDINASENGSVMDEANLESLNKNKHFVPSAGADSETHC
As to conditions: chinese hamster, cho, 10 µM.

Data set [2] addresses T2, Solute carrier organic anion transporter family member 1B3 (Homo sapiens, UniProt Q9NPD5).
T2 sequence (Q9NPD5 whole entry): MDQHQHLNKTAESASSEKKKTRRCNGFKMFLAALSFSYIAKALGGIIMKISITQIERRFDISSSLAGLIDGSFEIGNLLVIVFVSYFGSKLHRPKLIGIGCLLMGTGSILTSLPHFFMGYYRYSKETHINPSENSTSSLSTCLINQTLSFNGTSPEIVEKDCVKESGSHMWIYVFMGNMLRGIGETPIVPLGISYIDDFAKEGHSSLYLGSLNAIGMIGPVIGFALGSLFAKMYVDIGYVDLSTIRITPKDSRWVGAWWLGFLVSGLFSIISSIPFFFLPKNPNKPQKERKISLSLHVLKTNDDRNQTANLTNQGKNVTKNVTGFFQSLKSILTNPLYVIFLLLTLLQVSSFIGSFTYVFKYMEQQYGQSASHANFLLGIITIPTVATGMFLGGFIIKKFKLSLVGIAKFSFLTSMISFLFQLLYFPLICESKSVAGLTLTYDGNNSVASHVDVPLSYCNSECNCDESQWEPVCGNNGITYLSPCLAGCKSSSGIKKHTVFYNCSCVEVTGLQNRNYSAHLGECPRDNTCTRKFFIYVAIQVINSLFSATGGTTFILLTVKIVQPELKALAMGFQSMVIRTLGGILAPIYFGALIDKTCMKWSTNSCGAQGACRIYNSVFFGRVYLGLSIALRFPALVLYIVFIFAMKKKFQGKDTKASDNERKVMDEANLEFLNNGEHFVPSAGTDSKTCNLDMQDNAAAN
As to conditions: chinese hamster, cho, 10 µM.

As for `CCCN1C[C@H](CSC)C[C@@H]2c3cccc4[nH]cc(c34)C[C@H]21.CS(=O)(=O)O` [PERGOLIDE MESYLATE], the residual activity in data set [1] turned out to be 90.15%; in data set [2] it was 85.27%.
In the same order, the values of `C1CCC(C(CC2CCCCN2)C2CCCCC2)CC1.O=C(O)/C=C\C(=O)O` (centres undefined) [PERHEXILINE MALEATE] are 68.81% and 92.29%.
In the same order, the values of `N#Cc1ccc2c(c1)N(CCCN1CCC(O)CC1)c1ccccc1S2` [PERICIAZINE] are 132.5% and 117.1%.
The like results for `C=C(C)[C@H]1CC=C(C(=O)O)CC1` [PERILLIC ACID (-)] were, in that order, 102.2% and 105%.
In the case of `C=C(C)[C@@H]1CC=C(CO)CC1` [PERILLYL ALCOHOL], the results for the residual activity in data set [1] and in data set [2] were 84.39% and 91.29%, respectively.
The like results for `CC(C)(C)N.CCC[C@H](N[C@@H](C)C(=O)N1[C@H](C(=O)O)C[C@@H]2CCCC[C@@H]21)C(=O)OCC` [PERINDOPRIL ERBUMINE] were, in that order, 107.5% and 81.39%.
Turning to `OCCN1CCN(CCCN2c3ccccc3Sc3ccc(Cl)cc32)CC1` [PERPHENAZINE], the residual activity in data set [1] was 130%; in data set [2], 113.3%.
In the same order, the values of `OCC(O)C(O)C(O)C(O)C(O)CO` (centres undefined) [PERSEITOL] are 60.19% and 73.5%.
The like results for `CO[C@H]1[C@H](O)[C@H](O[C@H]2CC[C@@]3(C=O)[C@H](CC[C@@H]4[C@@H]3CC[C@]3(C)[C@@H](C5=CC(=O)OC5)CC[C@]43O)C2)O[C@@H](C)[C@@H]1O` [PERUVOSIDE] were, in that order, 62.43% and 112.7%.
The like results for `COc1c(C(C)C)oc2cc3oc(=O)ccc3cc12` [PEUCEDANIN] were, in that order, 101.3% and 105.2%.
`CC(C)=CCc1c(O)cc2oc(C)cc(=O)c2c1O` [PEUCENIN]: the residual activity in data set [1] is 137.1%; in data set [2], 169%.
As for `NC(=O)NC(=O)Cc1ccccc1` [PHENACEMIDE], the values for the residual activity in data set [1] and in data set [2] were 93.72% and 104.7%, respectively.
For `CCOc1ccc(NC(C)=O)cc1` [PHENACETIN], the residual activity in data set [1] was 55.67%; in data set [2], 98.3%.
The like results for `Cl.NCC(=O)c1ccccc1` [PHENACYLAMINE HYDROCHLORIDE] were, in that order, 77.38% and 95.9%.
Regarding `Cl.Nc1ccc(/N=N/c2ccccc2)c(N)n1` [PHENAZOPYRIDINE HYDROCHLORIDE], the residual activity stood at 115.4% in data set [1] and 115.3% in data set [2].
In the same order, the values of `NNCCc1ccccc1.O=S(=O)(O)O` [PHENELZINE SULFATE] are 91.37% and 110.5%.
Turning to `CC(Oc1ccccc1)C(=O)N[C@@H]1C(=O)N2[C@@H]1SC(C)(C)[C@@H]2C(=O)[O-].[K+]` (some centres undefined) [PHENETHICILLIN POTASSIUM], the residual activity was 83.14% in data set [1] and 90.72% in data set [2].
In the same order, the values of `O=C1c2ccccc2C(=O)C1c1ccccc1` [PHENINDIONE] are 89.42% and 128.9%.
The like results for `CN(C)CCC(c1ccccc1)c1ccccn1.O=C(O)/C=C\C(=O)O` (centres undefined) [PHENIRAMINE MALEATE] were, in that order, 72.53% and 103.2%.
In the same order, the values of `O=C1OC(c2ccc(O)cc2)(c2ccc(O)cc2)c2ccccc21` [PHENOLPHTHALEIN] are 20.62% and 37.96%.
In the case of `CC(C)=CC1C(C(=O)OCc2cccc(Oc3ccccc3)c2)C1(C)C` (centres undefined) [PHENOTHRIN], the results for the residual activity in data set [1] and in data set [2] were 157.5% and 107.3%, respectively.
In the same order, the values of `CC(COc1ccccc1)N(CCCl)Cc1ccccc1.Cl` (centres undefined) [PHENOXYBENZAMINE HYDROCHLORIDE] are 101.5% and 88.73%.
Turning to `Cc1ccc(N(CC2=NCCN2)c2cccc(O)c2)cc1.Cl` [PHENTOLAMINE HYDROCHLORIDE], the residual activity is given as 85.39% in data set [1] and 86.01% in data set [2].
In the same order, the values of `O=C(Cc1ccccc1)NO` [PHENYLACETOHYDROXAMIC ACID] are 58.46% and 75.25%.
The like results for `N[C@@H](Cc1ccccc1)C(=O)N[C@@H](Cc1ccc(O)cc1)C(=O)O` [PHENYLALANYLTYROSINE] (H-Phe-Tyr-OH) were, in that order, 78.59% and 68.6%.
In the same order, the values of `CNC[C@H](O)c1cccc(O)c1.Cl` [PHENYLEPHRINE HYDROCHLORIDE] are 91.9% and 106.2%.
Turning to `O=C1N=C([O-])NC1(c1ccccc1)c1ccccc1.[Na+]` [PHENYTOIN SODIUM], the residual activity in data set [1] is given as 95.94%; in data set [2] it was 97.47%.
Consider `O=C(CCc1ccc(O)cc1)c1c(O)cc(O)cc1O` [PHLORETIN], for which the figures for the residual activity in data set [1] and in data set [2] were 83.5% and 98.4%, respectively.
The like results for `O=C(CCc1ccc(O)cc1)c1c(O)cc(O)cc1O[C@@H]1O[C@H](CO)[C@@H](O)[C@H](O)[C@H]1O` [PHLORIZIN] were, in that order, 50.32% and 106.3%.
As to `CCOP(=S)(OCC)SCSCC` [PHORATE], the residual activity in data set [1] is listed as 102.7%; in data set [2], 107.3%.
`CCOP(=S)(OCC)SCn1c(=O)oc2cc(Cl)ccc21` [PHOSALONE]: the residual activity is reported as 116.2% in data set [1] and 124% in data set [2].
Consider `O=C(O)c1ccccc1C(=O)Nc1ccc(S(=O)(=O)Nc2nccs2)cc1` [PHTHALYLSULFATHIAZOLE], for which the figures for the residual activity in data set [1] and in data set [2] were 115.5% and 107%, respectively.
In the same order, the values of `COc1cc(O)c2c(c1)C(=O)c1cc(C)cc(O)c1C2=O` [PHYSCION] are 111.9% and 112.8%.
Take `CNC(=O)Oc1ccc2c(c1)[C@]1(C)CCN(C)[C@@H]1N2C.O=C(O)c1ccccc1O` [PHYSOSTIGMINE SALICYLATE]: the residual activity in data set [1] was determined as 116%; in data set [2] it was 110.8%.
On to `CNC(=O)Oc1ccc2c(c1)[C@]1(C)CCN(C)[C@@H]1N2C.CNC(=O)Oc1ccc2c(c1)[C@]1(C)CCN(C)[C@@H]1N2C.O=S(=O)(O)O` [PHYSOSTIGMINE SULFATE], for which the residual activity is 101.7% in data set [1] and 99.93% in data set [2].
In the same order, the values of `CNC(=O)Oc1ccc2c(c1)[C@]1(C)CCN(C)[C@@H]1N2C` [PHYSOSTIGMINE] are 78.13% and 80.76%.
`CC(C)(O)[C@@H]1[C@H]2OC(=O)[C@@H]1[C@]1(O)C[C@H]3O[C@]34C(=O)O[C@H]2[C@]14C` [PICROTIN]: the residual activity stood at 88.44% in data set [1] and 89.14% in data set [2].
Regarding `C=C(C)[C@@H]1[C@H]2OC(=O)[C@@H]1[C@]1(O)C[C@H]3O[C@]34C(=O)O[C@H]2[C@]14C` [PICROTOXININ], the residual activity worked out at 102.7% in data set [1] and 101.9% in data set [2].
The like results for `CC[C@@H]1C(=O)OC[C@@H]1Cc1cncn1C.O=[N+]([O-])O` [PILOCARPINE NITRATE] were, in that order, 82.84% and 95.87%.
Take `CN1CCC(=C2c3ccccc3Sc3ccccc32)CC1.O=C(O)/C=C\C(=O)O` [PIMETHIXENE MALEATE]: the residual activity is given as 83.52% in data set [1] and 104.8% in data set [2].
The like results for `O=c1[nH]c2ccccc2n1C1CCN(CCCC(c2ccc(F)cc2)c2ccc(F)cc2)CC1` [PIMOZIDE] were, in that order, 167.9% and 121.7%.
The like results for `COc1c(OC)c2occc2c2oc(=O)ccc12` [PIMPINELLIN] were, in that order, 104.9% and 103.2%.
